Test results from patent publication US8343475B2, “Small cationic antimicrobial peptides” (priority 2006, dated 2013).
Values after ≈ are worked out from the molar mass of the structure shown. Residues, ends and D or L forms follow the SMILES beside them.

Experiments:
[1] = system: Pseudomonas aeruginosa PAO1 strain H103; format: cell-based; conditions: PAO1
In short: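 Modified broth microdilution MIC in Mueller Hinton medium, peptides diluted in 0.01% acetic acid/0.2% BSA, polypropylene plates. Inoculum 2-7×10^5 CFU/ml, overnight at 37 °C; MIC is the lowest concentration with no visible growth.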

[2] = system: MCP-3 release by human PBMC; assay: Chemokine induction in PBMC (capture ELISA); format: cell-based; conditions: background (6) subtracted
Procedure: FIG. 16. Induction of MCP3 release by 7.5×10^5 human PBMC in response to treatment with 20 or 100 μg/ml of different peptides for 24 hours.
(§1) Venous blood (20 ml) from healthy volunteers was collected in Vacutainer® collection tubes containing sodium heparin as an anticoagulant (Becton Dickinson, Mississauga, ON) in accordance with UBC ethical approval and guidelines. Blood was diluted 1:1 with complete RPMI 1640 medium and separated by centrifugation over a Ficoll-Paque® Plus (Amersham Biosciences, Piscataway, N.J., USA) density gradient. White blood cells were isolated from the buffy coat, washed twice in RPMI 1640 complete medium, and the number of peripheral blood mononuclear cells (PBMC) was determined by trypan blue exclusion. PBMC (5×10^5) were seeded into 12-well tissue culture dishes (Falcon; Becton Dickinson) at 0.75 to 1×10^6 cells/ml at 37° C. in 5% CO2. The above conditions were chosen to mimic conditions for circulating blood monocytes entering tissues at the site of infection via extravasation.
(§2) Following incubation of the cells under various treatment regimens, the tissue culture supernatants were centrifuged at 1000×g for 5 min, then at 10,000×g for 2 min to obtain cell-free samples. Supernatants were aliquoted and then stored at −20° C. prior to assay for various chemokines by capture ELISA (eBioscience and BioSource International Inc., CA, USA respectively)

[3] = system: CXCL1 (Gro-α) release by human PBMC; assay: Chemokine induction in PBMC (capture ELISA); format: cell-based; conditions: background (196) subtracted
Procedure: FIG. 17. Induction of CXCL1 (Gro-α) release by 7.5×10^5 human PBMC in response to treatment with 20 or 100 μg/ml of different peptides for 24 hours.
as §1, §2

[4] = system: lab isolate of Candida albicans; format: cell-based; conditions: lab isolate of
Procedure: (§3) Minimal inhibitory concentration (MIC) determination. The MIC of the peptides were measured using a modified broth microdilution method in Mueller Hinton (MH) medium (Wu M, Hancock R E W. 1999. Interaction of the cyclic antimicrobial cationic peptide bactenecin with the outer and cytoplasmic membrane. J Biol Chem 274, 29-35). Briefly, the peptides were dissolved and stored in glass vials. The assay was performed in sterile 96-well polypropylene microtitre plates were used. Serial dilutions of the peptides to be assayed were performed in 0.01% acetic acid (Fisher) containing 0.2% bovine serum albumin (Boehringer Mannheim GmbH) at 10× the desired final concentration. Ten microlitres of the 10× peptides were added to each well of a 96-well polypropylene plate containing 90 μl of MH media per well. Bacteria were added to the plate from an overnight culture at 2-7×10^5 colony forming units/ml and incubated over night at 37° C. The MIC was taken as the concentration at which no growth was observed.
(§4) Strains. For the killing assay a mini-Tn5-lux mutant in Pseudomonas aeruginosa H103 was used. The strain is called H1001 and contains a fliC::luxCDABE transcriptional fusion resulting in constitutive expression of luciferase. The bacterial strains used for the antimicrobial activity assays included Escherichia coli UB1005 (F-, nalA37, metB1), a wild-type Salmonella enterica ssp. typhimurium (S. typhimurium), wild-type Pseudomonas aeruginosa PAO1 strain H103, Enterococcus faecalis ATCC29212, Staphylococcus aureus ATCC25923, and a clinical isolate of Staphylococcus epidermidis obtained from Dr. D. Speert (Department of Medicine, University of British Columbia). Antifungal activity was tested using a lab isolate of Candida albicans obtained from Dr. B. Dill (Department of Microbiology and Immunology, University of British Columbia).

Escherichia coli UB1005 = format: cell-based; conditions: UB1005
Procedure: as §3, §4

[5] = system: Staphylococcus aureus ATCC25923; format: cell-based; conditions: ATCC25923
Procedure: as §3, §4

[6] = system: clinical isolate of Staphylococcus epidermidis; format: cell-based; conditions: clinical isolate of
Procedure: as §3, §4

[7] = system: Enterococcus faecalis ATCC29212; format: cell-based; conditions: ATCC29212
Procedure: as §3, §4

[8] = system: wild-type Salmonella enterica ssp. typhimurium; format: cell-based
Procedure: as §3, §4

[9] = system: MCP-1 release by human PBMC; assay: Chemokine induction in PBMC (capture ELISA); format: cell-based; conditions: background (204) subtracted
Procedure: FIG. 15. Induction of MCP-1 release by 7.5×10^5 human PBMC in response to treatment with 20 or 100 μg/ml of different peptides for 24 hours.
as §1, §2

[10] = system: multidrug resistant Pseudomonas maltophilia ATCC13637; format: cell-based
Procedure: as §3
(§5) The selected peptides were synthesized and assayed against several major antibiotic-resistant pathogens. Initially, the peptides were screened against the laboratory strain of P. aeruginosa PAO1 to compare the results with the training data. […] The antibacterial activity in the form of minimal inhibitory concentration (MIC) of the other studied peptides was assessed in greater depth (Table 9) against many highly antibiotic resistanct pathogens.

[11] = system: ESBL Klebsiella pneumonia clinical strain 63575; format: cell-based
Procedure: as §3, §5

[12] = system: ESBL E. coli clinical strain 64771; format: cell-based; conditions: ESBL clinical strain 64771
Procedure: as §3, §5

[13] = system: Liverpool Epidemic Strains; format: cell-based, Pseudomonas aeruginosa
Procedure: as §3
(§6) All peptides derived from the 1st, 2nd, and 3rd quartiles were further evaluated for their antibacterial activities against several highly antibitoic resistant pathogens (Table 3). These included clinical isolates of MRSA, ESBL E. cloacae, and multidrug resistant Pseudomonas strains including Brazilian clinical isolates of P. aeruginosa that are resistant to meropenem, ceftazidime, piperacillin/tazobactam, ciprofloxacin, cefepime and polymyxin B, and the Liverpool Epidemic Strains. […] Such results characterize the developed peptides as excellent antibiotic candidates, providing new means for treating most dangerous and severe forms of human infections.

ESBL E. cloacae = format: cell-based, Enterobacter cloacae
Procedure: as §3, §6

[14] = system: clinical isolates of MRSA; format: cell-based, Staphylococcus aureus
Procedure: as §3, §6

Row | MIC [10] [µM] | MIC [11] [µM] | MIC [12] [µM] | MIC [13] [µM] | MIC (ESBL E. cloacae) [µM] | MIC [5] [µM] | MIC [7] [µM] | MIC [14] [µM] | MIC against P. aeruginosa PAO1 [1] [µM] | Structure (SMILES) | Chemokine induction MCP-3 ([2]; 20 μg/ml peptide) [pg/mL] | Chemokine induction MCP-3 ([2]; 100 μg/ml peptide) [pg/mL] | Chemokine induction Gro-α ([3]; 20 μg/ml peptide) [pg/mL] | Chemokine induction Gro-α ([3]; 100 μg/ml peptide) [pg/mL] | Chemokine induction MCP-1 ([9]; 20 μg/ml peptide) [pg/mL] | Chemokine induction MCP-1 ([9]; 100 μg/ml peptide) [pg/mL] | further results
1 | – | – | – | – | – | – | – | – | – | CC[C@H](C)[C@H](NC(=O)[C@H](CCCNC(=N)N)NC(=O)[C@H](Cc1ccccc1)NC(=O)[C@H](CCC(N)=O)NC(=O)[C@@H](N)CCCCN)C(=O)N[C@@H](CCCNC(=N)N)C(=O)N[C@H](C(=O)N[C@@H](CCCNC(=N)N)C(=O)N[C@H](C(=O)N[C@H](C(=O)N[C@@H](CCCNC(=N)N)C(=O)N[C@@H](CCCCN)C(N)=O)[C@@H](C)CC)C(C)C)C(C)C [HH12, KQFRIRVRVIRK] (H-KQFRIRVRVIRK-NH2; N-terminus assumed) | 91 | 21 | 773 | 172 | 1649 | 635 | MIC P. aerug [1]: 6 µg/mL (≈ 3.75 µM); MIC C. albicans [4]: 6 µg/mL (≈ 3.75 µM); MIC E. coli (Escherichia coli UB1005): 3 µg/mL (≈ 1.88 µM); MIC S. aureus [5]: 12 µg/mL (≈ 7.51 µM); MIC S. epi. [6]: 1.6 µg/mL (≈ 1 µM); MIC E. faecalis [7]: 25 µg/mL (≈ 15.6 µM); MIC S. typhi [8]: 6 µg/mL (≈ 3.75 µM)
2 | 0.8 (≈ 1.15 µg/mL) | 24 (≈ 34.5 µg/mL) | 6 (≈ 8.63 µg/mL) | 1.5 (≈ 2.16 µg/mL) | 24 (≈ 34.5 µg/mL) | 1.5 (≈ 2.16 µg/mL) | 24 (≈ 34.5 µg/mL) | 3 (≈ 4.32 µg/mL) | 4 to 12 | N=C(N)NCCC[C@H](NC(=O)[C@H](CCCNC(=N)N)NC(=O)[C@@H](N)Cc1ccccc1)C(=O)N[C@@H](Cc1c[nH]c2ccccc12)C(=O)N[C@@H](Cc1c[nH]c2ccccc12)C(=O)N[C@@H](CCCCN)C(=O)N[C@@H](Cc1c[nH]c2ccccc12)C(=O)N[C@@H](Cc1ccccc1)C(=O)N[C@@H](CCCCN)C(N)=O [HHC53, FRRWWKWFK] (H-FRRWWKWFK-NH2; N-terminus assumed) | -1 | 5 | -23 | 2 | -26 | 391 | –
3 | 3 (≈ 4.07 µg/mL) | 50 (≈ 67.8 µg/mL) | 13 (≈ 17.6 µg/mL) | 6 (≈ 8.13 µg/mL) | 50 (≈ 67.8 µg/mL) | 6 (≈ 8.13 µg/mL) | 13 (≈ 17.6 µg/mL) | 63 (≈ 85.4 µg/mL) | 4 to 12 | CC[C@H](C)[C@H](NC(=O)[C@H](CCCNC(=N)N)NC(=O)[C@H](CCCCN)NC(=O)[C@@H](NC(=O)[C@H](Cc1c[nH]c2ccccc12)NC(=O)[C@H](Cc1c[nH]c2ccccc12)NC(=O)[C@H](Cc1c[nH]c2ccccc12)NC(=O)[C@H](CCCNC(=N)N)NC(=O)[C@@H](N)CC(C)C)[C@@H](C)CC)C(N)=O [HHC57, LRWWWIKRI] (H-LRWWWIKRI-NH2; N-terminus assumed) | 0 | 9 | 21 | 18 | 146 | 1364 | –

Row | Structure (SMILES) | MIC [10] [µM] | MIC [11] [µM] | MIC [12] [µM] | MIC [13] [µM] | MIC (ESBL E. cloacae) [µM] | MIC [5] [µM] | MIC [7] [µM] | MIC [14] [µM] | MIC against P. aeruginosa PAO1 [1] [µM] | Chemokine induction MCP-3 ([2]; 20 μg/ml peptide) [pg/mL] | Chemokine induction MCP-3 ([2]; 100 μg/ml peptide) [pg/mL] | Chemokine induction Gro-α ([3]; 20 μg/ml peptide) [pg/mL] | Chemokine induction Gro-α ([3]; 100 μg/ml peptide) [pg/mL] | Chemokine induction MCP-1 ([9]; 20 μg/ml peptide) [pg/mL] | Chemokine induction MCP-1 ([9]; 100 μg/ml peptide) [pg/mL] | further results
4 | CC[C@H](C)[C@H](NC(=O)[C@@H](N)CCCCN)C(=O)N[C@@H](Cc1c[nH]c2ccccc12)C(=O)N[C@@H](Cc1c[nH]c2ccccc12)C(=O)N[C@@H](Cc1c[nH]c2ccccc12)C(=O)N[C@@H](Cc1c[nH]c2ccccc12)C(=O)N[C@@H](CCCNC(=N)N)C(=O)N[C@@H](CCCCN)C(=O)N[C@@H](CCCNC(=N)N)C(N)=O [HHC8, KIWWWWRKR] (H-KIWWWWRKR-NH2; N-terminus assumed) | 3 (≈ 4.33 µg/mL) | 47 (≈ 67.9 µg/mL) | 6 (≈ 8.66 µg/mL) | 5.9 (≈ 8.52 µg/mL) | 94 (≈ 136 µg/mL) | 6 (≈ 8.66 µg/mL) | 24 (≈ 34.7 µg/mL) | 6 (≈ 8.66 µg/mL) | – | 1 | 4 | 9 | -11 | 68 | 835 | –
